From patent US20230203041A1, “ANTAGONISTS OF THE ADENOSINE A2A RECEPTOR” (AdoRx Therapeutics Limited, priority 2020, published 2023)
Structures can show the parent of a compound that is named as a salt.

Key:
[1] = target: T1, human Adenosine A2b receptor (Homo sapiens, UniProt P29275); assay: Adenosine receptor TR-FRET binding assay (CA200645 displacement), A2b; conditions: 30 nM CA200645, CHO cell membranes, 2 hours at room temperature
T1 construct: expressed in transfected cells; host or cells: CHO cell membranes
T1 sequence (P29275 1-332): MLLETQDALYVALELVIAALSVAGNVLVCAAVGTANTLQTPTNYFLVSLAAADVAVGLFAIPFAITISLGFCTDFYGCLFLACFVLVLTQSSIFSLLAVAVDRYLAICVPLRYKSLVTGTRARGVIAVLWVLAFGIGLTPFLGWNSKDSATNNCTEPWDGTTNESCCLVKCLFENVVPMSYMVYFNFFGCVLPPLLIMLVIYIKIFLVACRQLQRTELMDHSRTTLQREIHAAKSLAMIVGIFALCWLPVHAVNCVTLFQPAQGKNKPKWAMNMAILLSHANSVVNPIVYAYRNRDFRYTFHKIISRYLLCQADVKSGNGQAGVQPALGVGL
Description: All FRET binding experiments were conducted at room temperature in white 384-well plates, in assay binding buffer containing 1×LabMed (Cisbio, France), 100 μg/mL saponin, 1% DMSO and 0.02% pluronic acid. Binding of the fluorescently labelled Adenosine receptor antagonist XAC (CA200645, FRET acceptor) to terbium-labelled A1, A2a, A2b and A3 adenosine receptors (FRET donors) was detected by time-resolved FRET due to the close proximity of the donor and acceptor in a binding event. To investigate the ability of unlabelled test compounds to bind to Adenosine A1, A2a, A2b and A3 receptors, dose response curves were constructed that determined the ability of a range of concentrations to inhibit the binding of 30 nM CA200645 to the A2b receptor and 100 nM CA200645 to the A1, A2a, and A3 receptor.
Serial dilution (1:3 dilutions) of test compounds in neat DMSO and transfer of a 400 nL sample of test compound into the assay plate was carried out using the Mosquito (TTP Labtech, UK). The compound samples were incubated for 2 hours at room temperature with a fixed concentration of CA200645 defined for each receptor (see above) and CHO cell membranes containing the human Adenosine A1 (0.5 μg/well), A2a (0.3 μg/well), A2b (1 μg/well) or A3 (1 μg/well) receptor in 40 μL of assay buffer. Total and non-specific binding of CA200645 was determined in the absence and presence of 10 μM XAC, respectively. Following 2 hours incubation, the level of CA200645 binding was detected on a Pherastar FSX (BMG Labtech, Germany) using standard TR-FRET settings. The terbium donor was excited with three laser flashes at a wavelength of 337 nm, and donor and acceptor emission was detected at 620 nm and 665 nm wavelengths, respectively. FRET ratios were obtained by multiplying the acceptor/donor ratio value by 10,000. Specific binding was determined by subtracting the non-specific binding FRET ratio from the total binding FRET ratio. Compound IC50 curves were analysed using GraphPad Prism 7.0 (GraphPad, USA) and Ki affinity values were determined from the obtained IC50 values using the method of Cheng and Prusoff.

[2] = target: T2, human Adenosine A3 receptor (Homo sapiens, UniProt P0DMS8); assay: Adenosine receptor TR-FRET binding assay (CA200645 displacement), A3
T2 sequence (P0DMS8 1-318): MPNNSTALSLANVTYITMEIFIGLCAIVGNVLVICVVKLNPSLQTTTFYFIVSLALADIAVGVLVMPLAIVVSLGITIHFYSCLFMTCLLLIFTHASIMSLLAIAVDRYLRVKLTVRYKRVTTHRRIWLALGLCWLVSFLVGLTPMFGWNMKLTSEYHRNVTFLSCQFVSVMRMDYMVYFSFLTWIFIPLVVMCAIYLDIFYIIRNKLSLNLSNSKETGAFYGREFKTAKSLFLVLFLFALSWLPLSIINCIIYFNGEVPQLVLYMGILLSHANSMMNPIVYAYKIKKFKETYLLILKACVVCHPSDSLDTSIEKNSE

[3] = target: T3, human Adenosine A1 receptor (Homo sapiens, UniProt P30542); assay: Adenosine receptor TR-FRET binding assay (CA200645 displacement), A1
T3 sequence (P30542 1-326): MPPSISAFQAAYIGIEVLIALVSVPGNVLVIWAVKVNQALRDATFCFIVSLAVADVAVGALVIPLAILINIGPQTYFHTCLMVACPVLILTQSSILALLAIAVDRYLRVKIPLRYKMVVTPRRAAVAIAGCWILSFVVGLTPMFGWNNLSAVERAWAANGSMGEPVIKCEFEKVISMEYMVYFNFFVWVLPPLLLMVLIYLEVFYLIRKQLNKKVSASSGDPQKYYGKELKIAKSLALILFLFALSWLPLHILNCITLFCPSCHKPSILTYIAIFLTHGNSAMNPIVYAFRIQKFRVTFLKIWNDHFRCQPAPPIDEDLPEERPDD

[4] = target: T4, human Adenosine A2a receptor (Homo sapiens, UniProt P29274); assay: Adenosine receptor TR-FRET binding assay (CA200645 displacement), A2a; conditions: 100 nM CA200645, CHO cell membranes, 2 hours at room temperature
T4 construct: expressed in transfected cells; host or cells: CHO cell membranes
T4 sequence (P29274 whole entry): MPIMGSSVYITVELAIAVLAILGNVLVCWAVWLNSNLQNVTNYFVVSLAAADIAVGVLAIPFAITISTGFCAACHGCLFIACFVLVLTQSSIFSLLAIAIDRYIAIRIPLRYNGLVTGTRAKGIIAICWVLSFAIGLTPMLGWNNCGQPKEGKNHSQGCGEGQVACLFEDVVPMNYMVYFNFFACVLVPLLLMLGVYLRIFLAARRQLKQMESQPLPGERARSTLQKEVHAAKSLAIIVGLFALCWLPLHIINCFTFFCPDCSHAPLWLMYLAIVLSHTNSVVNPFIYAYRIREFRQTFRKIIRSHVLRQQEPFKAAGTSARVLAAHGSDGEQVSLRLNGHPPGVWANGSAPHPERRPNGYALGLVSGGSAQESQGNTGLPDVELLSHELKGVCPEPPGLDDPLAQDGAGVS

Ki [1]	Ki [2]	Ki [3]	Ki [4]	Compound
102 nM	> 1000 nM	593 nM	17.1 nM	Cc1cc(-c2c(-c3cccc(C#N)c3)nn3ccc(NCc4ncc[nH]4)nc23)cc(Cl)n1 [Example 2.32]
36 nM	> 1000 nM	361 nM	0.8 nM	Cc1cc(-c2c(-c3cccc(C#N)c3)nn3ccc(C(=O)N[C@@H]4COC[C@@H]4O)nc23)cc(C)n1 [Example 92.30]
519 nM	> 1000 nM	583 nM	54.1 nM	CC(=O)Nc1cc(-c2c(-c3cccc(C#N)c3)nn3ccc(N)nc23)cc(C)n1 [Example 27.4, N-[4-[5-Amino-2-(3-cyanophenyl)pyrazolo[1,5-a]pyrimidin-3-yl]-6-methyl-2-pyridyl]acetamide]
1310 nM	> 1000 nM	1390 nM	71.4 nM	Cc1cc(-c2c(-c3cccc(C#N)c3)nn3ccc(NCC(C)(C)C(=O)O)nc23)cc(Cl)n1 [Example 2.13]
22 nM	> 1000 nM	573 nM	11.6 nM	Cc1cc(-c2c(-c3cccc(C#N)c3)nn3ccc(CN4CCOCC4)nc23)cc(Cl)n1 [Example 20, 3-[3-(2-Chloro-6-methyl-4-pyridyl)-5-(morpholinomethyl)pyrazolo[1,5-a]pyrimidin-2-yl]benzonitrile]
5 nM	> 1000 nM	26 nM	1.3 nM	Cc1cc(-c2c(-c3cccc(C#N)c3)nn3ccc(NC(=O)NCC(C)(C)O)nc23)cc(Cl)n1 [Example 30.1, 1-[3-(2-Chloro-6-methyl-4-pyridyl)-2-(3-cyanophenyl)pyrazolo[1,5-a]pyrimidin-5-yl]-3-(2-hydroxy-2-methyl-propyl)urea]
626 nM	> 1000 nM	2530 nM	116 nM	Cc1cc(-c2c(-c3cccc(C#N)c3)nn3ccc(CN4CCNCC4)nc23)cc(C)n1 [Example 20.1, 3-[3-(2,6-Dimethyl-4-pyridyl)-5-(piperazin-1-ylmethyl)pyrazolo[1,5-a]pyrimidin-2-yl]benzonitrile trifluoroacetate]
16 nM	578 nM	6 nM	10.1 nM	Cc1cc(-c2c(-c3cccc(C#N)c3)nn3ccc(N)nc23)cc(F)n1 [Example 26.4, 3-[5-Amino-3-(2-fluoro-6-methyl-4-pyridyl)pyrazolo[1,5-a]pyrimidin-2-yl]benzonitrile]
16 nM	> 1000 nM	54 nM	9.7 nM	Cc1cc(-c2c(-c3cccc(C#N)c3)nn3ccc(O[C@@H]4CCNC4)nc23)cc(Cl)n1 [Example 18, 3-[3-(2-Chloro-6-methyl-4-pyridyl)-5-[(3R)-pyrrolidin-3-yl]oxy-pyrazolo[1,5-a]pyrimidin-2-yl]benzonitrile formate]
38 nM	> 1000 nM	1240 nM	4.3 nM	Cc1cc(-c2c(-c3cccc(C#N)c3)nn3ccc(C(=O)NCC(C)(C)O)nc23)c(F)c(C)n1 [Example 101.1, 2-(3-Cyanophenyl)-3-(3-fluoro-2,6-dimethyl-4-pyridyl)-N-(2-hydroxy-2-methyl-propyl)pyrazolo[1,5-a]pyrimidine-5-carboxamide]
4460 nM	> 1000 nM	988 nM	155 nM	N#Cc1c(-c2ccco2)nn2ccc(NC[C@H]3CCCN3)nc12 [Example 80, 2-(2-furyl)-5-[[(2R)-pyrrolidin-2-yl]methylamino]pyrazolo[1,5-a]pyrimidine-3-carbonitrile hydrochloride]
62 nM	> 1000 nM	184 nM	14.9 nM	CCn1nccc1-c1c(-c2cccc(C#N)c2)nn2ccc(N3CCN(C)C(CO)C3)nc12 (stereo not drawn) [Example 33.1]
1200 nM	749 nM	89 nM	105 nM	Cn1cc(-c2c(-c3cccc(C#N)c3)nn3ccc(N)nc23)cn1 [Example 26.5, 3-[5-Amino-3-(1-methylpyrazol-4-yl)pyrazolo[1,5-a]pyrimidin-2-yl]benzonitrile]
259 nM	2530 nM	305 nM	23.3 nM	Cc1cc(-c2c(-c3cccc(C#N)c3)nn3ccc(N4CC(C(=O)O)C4)nc23)cc(Cl)n1 [Example 2.35]
39 nM	2550 nM	522 nM	8.3 nM	Cc1cc(-c2c(-c3cccc(C#N)c3)nn3ccc(C(=O)NS(C)(=O)=O)nc23)cc(Cl)n1 [Example 6.8, 3-(2-Chloro-6-methyl-4-pyridyl)-2-(3-cyanophenyl)-N-methylsulfonyl-pyrazolo[1,5-a]pyrimidine-5-carboxamide]
102 nM	> 1000 nM	2440 nM	81.5 nM	Cc1cc(-c2c(-c3cccc(C#N)c3)nn3ccc(CN)nc23)cc(Cl)n1 [Example 21, 3-[5-(Aminomethyl)-3-(2-chloro-6-methyl-4-pyridyl)pyrazolo[1,5-a]pyrimidin-2-yl]benzonitrile]
5 nM	> 1000 nM	174 nM	1.4 nM	Cc1cc(-c2c(-c3cccc(C#N)c3)nn3ccc(C(=O)NCC4(O)COC4)nc23)cc(Cl)n1 [Example 6.7, 3-(2-Chloro-6-methyl-4-pyridyl)-2-(3-cyanophenyl)-N-[(3-hydroxyoxetan-3-yl)methyl]pyrazolo[1,5-a]pyrimidine-5-carboxamide]
20 nM	> 1000 nM	224 nM	0.3 nM	Cc1cc(-c2c(-c3cccc(C#N)c3)nn3ccc(C(=O)NCCC(C)(C)O)nc23)cc(Cl)n1 [Example 5.3]
1 nM	> 1000 nM	53 nM	6.8 nM	Cc1cc(-c2c(-c3cccc(C#N)c3)nn3ccc(NCC4(O)CNC4)nc23)cc(Cl)n1 [Example 4.11, 3-[3-(2-chloro-6-methyl-4-pyridyl)-5-[(3-hydroxyazetidin-3-yl)methylamino]pyrazolo[1,5-a]pyrimidin-2-yl]benzonitrile trifluoroacetate]
34 nM	> 1000 nM	412 nM	1.9 nM	Cc1cc(-c2c(-c3cccc(C#N)c3)nn3ccc(C(=O)N[C@H]4COC[C@@H]4O)nc23)cc(C)n1 [Example 92.29]
346 nM	> 1000 nM	837 nM	45.3 nM	Cc1cc(-c2c(-c3cccc(C#N)c3)nn3ccc(NC45CC(C(=O)O)(C4)C5)nc23)cc(Cl)n1 [Example 2.38]
1700 nM	4180 nM	284 nM	244 nM	N#Cc1c(-c2ccco2)nn2ccc(NCCO)nc12 [Example 55.2, 2-(2-furyl)-5-(2-hydroxyethylamino)pyrazolo[1,5-a]pyrimidine-3-carbonitrile]
29 nM	1650 nM	9 nM	3.3 nM	Cc1cc(-c2c(-c3cccc(C#N)c3)nn3ccc(O[C@@H]4CCCNC4)nc23)cc(Cl)n1 [Example 24.1, 3-[3-(2-Chloro-6-methyl-4-pyridyl)-5-[[(3R)-3-piperidyl]oxy]pyrazolo[1,5-a]pyrimidin-2-yl]benzonitrile]
14 nM	> 1000 nM	70 nM	0.6 nM	Cc1cc(-c2c(-c3cccc(C#N)c3)nn3ccc(C(=O)N[C@H]4COC[C@H]4O)nc23)cc(C)n1 [Example 92.8]
28 nM	> 1000 nM	160 nM	6.3 nM	Cc1cc(-c2c(-c3cccc(C#N)c3)nn3ccc(C(=O)N[C@@H]4CCNC4)nc23)cc(Cl)n1 [Example 7.13, 3-(2-Chloro-6-methyl-4-pyridyl)-2-(3-cyanophenyl)-N-[(3R)-pyrrolidin-3-yl]pyrazolo[1,5-a]pyrimidine-5-carboxamide hydrochloride]

Compound	Ki [1]	Ki [2]	Ki [3]	Ki [4]
CCn1nccc1-c1c(-c2cccc(C#N)c2)nn2ccc(N3CC4CCC(C3)N4C)nc12 [Example 33.3]	710 nM	> 1000 nM	67 nM	28.6 nM
Cc1cc(-c2c(-c3cccc(C#N)c3)nn3ccc(N4CC5CCC(C4)N5C)nc23)cc(Cl)n1 [Example 2.2]	45 nM	> 1000 nM	5 nM	0.5 nM
